Laboratory results: EP1738741A2, “Use of benzylidene-1,3-thiazolidine-2,4-diones for favouring and/or inducing and/or stimulating the pigmentation of keratinic materials and/or for limiting their depigmentation and/or their bleaching” (L'ORÉAL, priority 2005, dated 2007)
Where two headings read alike, the source gives them in different places.

How the values were obtained:
[1] = tested on: activité tyrosinase de mélanocytes humains normaux; test: Tyrosinase activity of cultured normal human melanocytes after 72 h treatment (L-Dopa substrate, absorbance 450 nm); assay type: cell-based; conditions: Melanocyte, read-out: Stimulation de l'activité tyrosinase
Experimental: Des mélanocytes épidermiques humains normaux sont cultivés (9ème passage) dans le milieu "mélanocytes growth medium M2" additionné Des compléments Promocell C24300. De pénicilline 50 UI/ml et de streptomycine 50 µg/ml (Invitrogen) dans des conditions classiques de température (37°C) sous 5% de CO2.
Le composé 5 est solubilisé dans de l'éthanol absolu (PGE2) ou dans du DMSO (inhibiteurs de 15-PGDH). Le titre final des solutions préparées est de 10 mM. Les concentrations finales testées varient de 0.1 à 10 µM (PGE2) et 1 à 10 µM (inhibiteurs de 15-PGDH).
Les essais réalisés consistent à mesurer l'effet d'inhibiteur de 15-PGDH seul ou associé à PGE2* sur l'activité globale de la tyrosinase. * PGE2 est un modulateur de pigmentation désactivé par l'enzyme 15-PGDH.
Les mélanocytes sont cultivés en plaques 96 puits jusqu'à confluence (conditions de culture décrites en a), puis le surnageant de chacun des puits est éliminé et remplacé par du milieu contenant les composés à évaluer.
Soit donc (en triplicate) l' inhibiteur de 15-PGDH seul à 1 µM et 10 µM ou pour chacune de ces premières conditions en présence de 0.1 µM, 1 µM ou 10 µM de PGE2.
Dans ces différentes conditions les cultures sont maintenues 72h00, les surnageants sont ensuite éliminés, les tapis cellulaires sont lavés avec un tampon phosphate (pH=7.2). Les cellules sont lysées avec un tampon phosphate pH=7.2 contenant 1% de triton X100.
L'activité tyrosinase de chacun des lysats est ensuite estimée contre une gamme tyrosinase de champignon (Sigma T7755).
La méthodologie mise en oeuvre utilise la L-Dopa comme substrat de réaction (45 min à 37°C), la formation de mélanine est appréciée par mesure de l'absorbance à 450 nm.
Dans ce test, deux références sont également évaluée: l'acide kojique (un inhibiteur de tyrosinase introduite à 0.1% dans le milieu de culture) et l'isobutyle méthyle xanthine (IBMX) un inhibiteur de phosphodiesterase qui limitant le catabolisme de l'AMPc contribue à l'augmentation de l'activité tyrosinase globale telle qu'appréciée dans ce test.

15-PGDH de type 1 = target: T1, 15-PGDH de type 1 (Homo sapiens, UniProt P15428); test: Test on 15-PGDH type 1: spectrophotometric enzyme inhibition at 340 nm (NAD, PGE2 substrate); assay type: biochemical
T1 construct: made in house
T1 sequence (P15428 1-266): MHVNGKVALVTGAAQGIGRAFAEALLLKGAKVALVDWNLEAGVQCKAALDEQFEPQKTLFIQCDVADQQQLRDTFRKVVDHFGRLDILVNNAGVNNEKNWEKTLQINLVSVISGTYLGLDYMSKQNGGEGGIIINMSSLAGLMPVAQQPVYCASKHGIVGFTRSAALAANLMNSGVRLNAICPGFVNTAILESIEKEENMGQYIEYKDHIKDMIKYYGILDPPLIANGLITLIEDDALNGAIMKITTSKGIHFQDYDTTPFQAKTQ
Experimental: L'enzyme 15-PGDH est obtenue comme décrit dans la demande FR 02/05067 déposée au nom de L'Oréal, en suspension dans un milieu adapté à une concentration de 0,3 mg/mL puis bloquée à - 80°C. Pour les besoins du test, cette suspension est décongelée et stockée dans de la glace.
Par ailleurs on prépare un tampon Tris 100 mM, pH = 7,4, contenant 0,1 mM de dithiothréitol (D5545, Sigma-Aldrich, L'isle D'Abeau Chesne, BP 701, 38297, Saint Quentin Fallavier), 1,5 mM de β-NAD (N6522, Sigma-Aldrich, L'isle D'Abeau Chesne, BP 701, 38297, Saint Quentin Fallavier), 50 µM de Prostaglandine E2 (P4172, Sigma-Aldrich, L'isle D'Abeau Chesne, BP 701, 38297, Saint Quentin Fallavier).
Dans la cuve d'un spectrophotomètre (Perkin-Elmer, Lambda 2) thermostaté à 37°C, dont la longueur d'onde de mesure est réglée à 340 nm, sont introduits 0,965 ml de ce tampon (préalablement porté à 37°C). 0,035 mL de suspension enzymatique à 37°C sont introduits dans la cuve concomitamment à l'enregistrement ( correspondant à une augmentation de la densité optique à 340 nm). La vitesse maximale de réaction est relevée.

inhibition at 100 µM (15-PGDH de type 1)	SMILES	other results
–	CC(C)(C)c1ccc(Oc2ccccc2/C=C2\SC(=O)NC2=O)cc1 [Composé 4]	activation at 1 µM [1]: 16%
–	CCCCC[C@H](O)/C=C/[C@H]1[C@H](O)CC(=O)[C@@H]1C/C=C\CCCC(=O)O [PGE2, Prostaglandine E2]	activation at 0.1 µM ([1]; PGE2 alone at 0,1 µM): 3%; activation at 1 µM ([1]; PGE2 alone at 1 uM): 9%; activation at 10 µM ([1]; PGE2 alone at 10 uM): 15%
48%	O=C1NC(=O)/C(=C/c2ccccc2Oc2ccc(F)cc2)S1 [compound 6]	–
23%	CCN1C(=O)S/C(=C\c2ccccc2Oc2ccc(C(C)(C)C)cc2)C1=O [compound 13]	–
27%	CC(C)(C)CC(C)(C)c1ccc(Oc2ccccc2/C=C2/SC(=O)NC2=O)cc1 [compound 15]	–
30%	CC(C)(C)c1ccc(Oc2ccccc2/C=C2\SC(=O)NC2=O)c(C(C)(C)C)c1 [compound 17]	–
